Here are results for four compounds from patent publication US20230116196A1, “METHOD OF TREATING CNS DISORDERS WITH NEU[…] GABAERGIC COMPOUNDS” (priority 2017, published 2023).

The test system of experiment [1] is GABAARs composed of α4β3 subunits. Kind of experiment: Acute modulation of IGABA in HEK-293 expressing GABAARs. Particulars: 100 mM (so in the source), rapidly applied with GABA. It is filed as cell-based.
The test system of experiment [2] is dentate gyrus granule cells (DGGCs). It is filed as cell-based, mouse. Particulars: protocol as FIG. 3. How it is done: Brain slices were prepared from 3- to 5-week-old male C57 mice. Mice were anesthetized with isoflurane, decapitated, and brains were rapidly removed and submerged in ice-cold cutting solution containing (mM): 126 NaCl, 2.5 KCl, 0.5 CaCl2, 2 MgCl2, 26 NaHCO3, 1.25 NaH2PO4, 10 glucose, 1.5 sodium pyruvate, and 3 kynurenic acid. Coronal 310 μm thick slices were cut with the vibratome VT1000S (Leica Microsystems, St Louis, Mo., USA). The slices were then transferred into incubation chamber filled with prewarmed (31-32° C.) oxygenated artificial cerebro-spinal fluid (ACSF) of the following composition (in mM): 126 NaCl, 2.5 KCl, 2 CaCl2, 2 MgCl2, 26 NaHCO3, 1.25 NaH2PO4, 10 glucose, 1.5 sodium pyruvate, 1 glutamine, 3 kynurenic acid and 0.005 GABA bubbled with 95% O2-5% CO2. Slices were allowed to recover at 32° C. for at least 1 hr before recording. Exogenous GABA was added in an attempt to standardize ambient GABA in the slice and provide an agonist source for newly inserted extrasynaptic GABAARs.
After recovery, a single slice was transferred to a submerged, dual perfusion recording chamber (Warner Instruments, Hamden, Conn., USA) on the stage of an upright microscope (Nikon FN-1) with a 40× water immersion objective equipped with DIC/IR optics. Slices were maintained at 32° C. and gravity-superfused with ACSF solution throughout experimentation and perfused at rate of 2 ml/min with oxygenated (O2/CO2 95/5%) ACSF.
Whole-cell currents were recorded from the dentate gyrus granule cells (DGGCs) in 310-μm-thick coronal hippocampal slices. Patch pipettes (5-7MΩ) were pulled from borosilicate glass (World Precision Instruments) and filled with intracellular solution of the composition (in mM) as follows: 140 CsCl, 1 MgCl2, 0.1 EGTA, 10 HEPES, 2 Mg-ATP, 4 NaCl and 0.3 Na-GTP (pH=7.2 with CsOH). A 5 min period for stabilization after obtaining the whole-cell recording conformation (holding potential of −60 mV) was allowed before currents were recorded using an Axopatch 200B amplifier (Molecular Devices), low-pass filtered at 2 kHz, digitized at 20 kHz (Digidata 1440A; Molecular Devices), and stored for offline analysis.
For tonic current measurements, an all-points histogram was plotted for a 10 s period before and during 100 μM picrotoxin application, once the response reached a plateau level. Recordings with unstable baselines were discarded. Fitting the histogram with a Gaussian distribution gave the mean baseline current amplitude and the difference between the amplitudes before and during picrotoxin was considered to be the tonic current. The negative section of the all-points histogram which corresponds to the inward IPSCs was not fitted with a Gaussian distribution (Kretschmannova et al., 2013; Nusser and Mody, 2002). Series resistance and whole-cell capacitance were continually monitored and compensated throughout the course of the experiment. Recordings were eliminated from data analysis if series resistance increased by >20%. Spontaneous inhibitory post-synaptic currents (sIPSCs) were analyzed using the mini-analysis software (version 5.6.4; Synaptosoft, Decatur, Ga.). Minimum threshold detection was set to 3 times the value of baseline noise signal. To assess sIPSC kinetics, the recording trace was visually inspected and only events with a stable baseline, sharp rising phase, and single peak were used to negate artifacts due to event summation. Only recordings with a minimum of 200 events fitting these criteria were analyzed. sIPSCs amplitude, and frequency from each experimental condition was pooled and expressed as mean±SEM. To measure sIPSC decay, 100 consecutive events were averaged and the decay was fitted to a double exponential and the weighted decay constant (tw) was determined. Statistical analysis was performed by using Student t-test (paired and unpaired where appropriate), where p<0.05 is considered significant.

Experiment [3] relates to GT1-7 cells. The experiment is described as follows: Patch-clamp of GABA-induced currents (IGABA) in GT1-7 cells. The settings on record: 100 nM in electrolyte, GABA EC20, 20 min time course. It is filed as cell-based. The procedure: Patch-clamp recordings were made from GT1-7 cells. The magnitude of the GABA-induced currents (IGABA) at EC20 agonists concentration were then measured, in the presence of control electrolyte or that supplemented with 100 nM ALLO, or 100 nM ORG OD 02-0 over a time course of 20 min.
(The patch-clamp technique gives a direct electrical read-out from membranes.)

The test system of experiment [4] is GABAA receptor β3 subunit S408/9. The experiment is described as follows: Immunoblot of β3 S408/9 phosphorylation in hippocampal slices. It is filed as cell-based, mouse. Particulars: 100 nM. How it is done:
Asterisks represent a significant difference from control (ALLO: p<0.01, Student's t-test, n=10 slices, from 10 mice; SGE-516: p<0.05, Student's t-test, n=4 slices, from 4 mice). […] Asterisks represent a significant difference from control (ALLO: p<0.05, Student's t-test, n=8 slices; SGE-516: p<0.05, Student's t-test, n=4 slices).
Hippocampi were dissected out of acute slices from 8 to 12 week old C57/Bl6 mice and lysed with […] including: 20 mM Tris-HCl, 150 mM NaCl, 5 mM EDTA, 10 mM NaF, 2 mM Na3VO4, 10 mM pyrophosphate, 0.1% SDS and 1% Triton after drug treatment. The β3 subunit was isolated using immunoprecipitation with β3 antibodies, after correction for protein content and the specific activity of labeling. Results were attained by SDS/PAGE followed by autoradiography (Abramian et al., 2010). For biotinylation experiments hippocampi were dissected out of acute slices from 8 to 12 week old C57/Bl6 mice and incubated in artificial cerebrospinal fluid (ACSF) described above at 30° C. for 1 h for recovery before experimentation. Slices were then placed on ice and incubated for 30 min with 1 mg/mL NHS-SS-biotin (Pierce). Excess biotin was removed by a 50 mM glycine quenching buffer, followed by washing of slices three times in ice-cold ACSF. The tissue was snap frozen on dry ice for 5 min, thawed at 4° C. and lysed. The lysates were solubilized with 2% Triton at 4° C. on a rotating wheel for 1 h. The insoluble material was removed by centrifugation, and 350-500 μg of protein lysate were incubated with NeutrAvidin beads (Pierce) for 18-24 h at 4° C. Bound material was eluted with sample buffer and subjected to SDS/PAGE and then immunoblotted with the indicated antibodies. Blots were then quantified using the CCD-based ChemiDoc XRS ? system. Antibodies against the β3 subunit and the phospho-β3 antibody were generated and verified by the laboratory of S.J.M. (Vien et al., 2015).
Treatment of hippocampal slices with SGE-516 increased the phosphorylation of S408/9 measured using pS408/9 antibodies. To produce antibodies specific for phosphorylated S443, rabbits were injected with a synthetic peptide corresponding to residues […] of the murine α4 subunit in which the serine residue corresponding to S443 was chemically phosphorylated; […]. Hippocampal slices were treated with vehicle (Con), or SGE-516 for 20 min. Slices were immunoblotted with pS408/9, β3, or actin antibodies. The ratio of pS408/9/β3 immunoreactivity was then normalized to control slices (100%=the line).
Hippocampal slices were treated with 100 nM ALLO or P4 (progesterone), and S408/9 phosphorylation was then determined as detailed above, n=4 slices (FIG. 18D). Hippocampal slices were treated with 100 nM ORG (FIG. 18E). S408/9 phosphorylation was examined using immunoblotting. […]

The subject of experiment [5] is GT1-7 cells. The experiment is described as follows: Immunoblot of β3 S408/9 phosphorylation in GT1-7 cells. Type of experiment: cell-based. The settings on record: 100 nM, 15 min. The procedure:
GT1-7 cells that co-express mPRα and GABAARs were used to measure the level of phosphorylation at S408/9 position of β3 subunit. […] Expression of mPRα was confirmed using western blotting.
GT1-7 cells were treated with 100 nM AllO or P4 for 15 min and immunoblotted with antibodies specifically recognizing β3, actin, and […] β3 subunit (pS408/9). The ratio of pS408/9 β3 subunit immunoreactivity were then normalized to levels seen in vehicle treated to controls, n=6.
Background: In western blotting, separated proteins are transferred to a membrane and probed.

The test system of experiment [6] is dentate gyrus granule cells (DGGCs). The settings on record: Abramian et al., 2010, 2014; cited from earlier work.
The target of experiment [7] is T1, α4β3δ GABAA receptors (Homo sapiens, UniProt O14764+P28472+P48169).
T1 construct: expressed in transfected cells; host or cells: CHO cells, transiently transfected (Lipofectamine)
The experiment is described as follows: Whole-cell patch clamp: potentiation of GABA EC20 currents at recombinant α4β3δ GABAA receptors. It is filed as cell-based. Particulars: data not shown. How it is done:
Cellular electrophysiology was used to measure the pharmacological properties of ALLO, ganaxolone and SGE-516 in heterologous cell systems. Compounds were tested for their ability to affect GABA mediated currents at a submaximal agonist dose (GABA EC20=2 μM).
LTK cells were stably transfected with the α1β2γ2 subunits of the GABA receptor and CHO cells are transiently transfected with the α4β3γ subunits via the Lipofecatamine method. Cells were passaged at a confluence of about 50-80% and then seeded onto 35 mm sterile culture dishes containing 2 ml culture complete medium without antibiotics or antimycotics. Cells were cultivated at a density that enabled the recording of single cells without visible connections to other cells.
Whole-cell currents were measured with HEKA EPC-10 amplifiers using PatchMaster software. Bath solution for all experiments contained (in mM): NaCl 137, KCl 4, CaCl2 1.8, MgCl2 1, HEPES 10, D-Glucose 10, pH 7.4 with NaOH. Intracellular (pipette) solution contained (in mM): KCl 130, MgCl2 1, Mg-ATP 5, HEPES 10, EGTA 5, pH 7.2 with KOH. During experiments, cells and solutions were maintained at room temperature (19° C.-30° C.). For manual patchclamp recordings, cell culture dishes were placed on the dish holder of the microscope and continuously perfused (1 ml/min) with bath solution. After formation of a Gigaohm seal between the patch electrode and the cell (pipette resistance range: 2.5 MΩ-6.0MΩ; seal resistance range: >1 GΩ) the cell membrane across the pipette tip was ruptured to assure electrical access to the cell interior (whole-cell patch configuration).
Cells were voltage-clamped at a holding potential of −80 mV. GABAA receptors were activated by 2 μM GABA and compounds were sequentially applied at increasing concentrations for 30 s prior to a 2 s application of GABA. GABA and compounds were applied to cells via the Dynaflow perfusion system (Cellectricon, Sweden). Test compounds were dissolved in DMSO to form 10 mM stock solution and serially diluted to 0.01, 0.1, 1, and 10 μM in bath solution. There was no effect on GABA currents when DMSO was applied to cells at its maximal concentration in solution (0.1%). All concentrations of test compound were tested on each cell. The relative percentage potentiation was defined as the peak amplitude in response to GABA EC20 in the presence of test compound divided by the peak amplitude in response to GABA EC20 alone, multiplied by 100.
ALLO and ganaxolone are known PAMs of both synaptic and extrasynaptic GABAAR-mediated currents. The ability of candidate compound SGE-516 to act as a PAM was compared to ALLO and ganaxolone using the whole-cell recordings of recombinant human GABAA receptors expressed in mammalian cells. The α1β2γ2 or α4β3δ subunit combinations were chosen as representatives of typical synaptic and extrasynaptic GABAA receptors respectively. Similar to previous reports (Botella et al., 2015), ALLO, ganaxolone and SGE-516 allosterically potentiated currents induced by EC20 concentration of GABA in a concentration-dependent manner in both synaptic- and extrasynaptic-type GABAARs.

T1 sequence (P48169 36-554): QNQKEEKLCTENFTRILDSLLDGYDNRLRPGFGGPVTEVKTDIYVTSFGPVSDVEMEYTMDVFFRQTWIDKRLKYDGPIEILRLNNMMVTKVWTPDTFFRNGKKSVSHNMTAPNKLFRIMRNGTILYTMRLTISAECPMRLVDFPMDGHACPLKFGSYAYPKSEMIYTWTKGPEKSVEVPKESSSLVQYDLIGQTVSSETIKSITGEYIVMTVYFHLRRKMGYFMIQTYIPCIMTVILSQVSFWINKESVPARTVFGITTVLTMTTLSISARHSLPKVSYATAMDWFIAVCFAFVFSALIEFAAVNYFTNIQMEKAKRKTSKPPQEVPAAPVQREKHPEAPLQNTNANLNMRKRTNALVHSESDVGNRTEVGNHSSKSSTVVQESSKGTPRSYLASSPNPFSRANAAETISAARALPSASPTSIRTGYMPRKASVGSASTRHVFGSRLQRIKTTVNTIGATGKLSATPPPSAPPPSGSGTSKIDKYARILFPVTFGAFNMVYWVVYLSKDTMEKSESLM
T1 sequence (P28472 26-473): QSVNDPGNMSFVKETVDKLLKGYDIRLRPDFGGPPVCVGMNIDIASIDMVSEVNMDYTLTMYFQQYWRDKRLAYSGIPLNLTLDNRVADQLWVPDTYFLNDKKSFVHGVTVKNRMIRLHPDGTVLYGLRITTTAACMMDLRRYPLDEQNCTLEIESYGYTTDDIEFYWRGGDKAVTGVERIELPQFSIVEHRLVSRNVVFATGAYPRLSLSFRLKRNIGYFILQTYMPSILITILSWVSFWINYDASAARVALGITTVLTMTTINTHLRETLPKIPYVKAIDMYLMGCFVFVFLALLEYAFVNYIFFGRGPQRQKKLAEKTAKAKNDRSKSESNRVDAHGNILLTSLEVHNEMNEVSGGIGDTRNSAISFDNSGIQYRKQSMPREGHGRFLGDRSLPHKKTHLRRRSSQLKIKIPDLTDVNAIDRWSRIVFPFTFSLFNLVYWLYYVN
T1 sequence (O14764 25-452): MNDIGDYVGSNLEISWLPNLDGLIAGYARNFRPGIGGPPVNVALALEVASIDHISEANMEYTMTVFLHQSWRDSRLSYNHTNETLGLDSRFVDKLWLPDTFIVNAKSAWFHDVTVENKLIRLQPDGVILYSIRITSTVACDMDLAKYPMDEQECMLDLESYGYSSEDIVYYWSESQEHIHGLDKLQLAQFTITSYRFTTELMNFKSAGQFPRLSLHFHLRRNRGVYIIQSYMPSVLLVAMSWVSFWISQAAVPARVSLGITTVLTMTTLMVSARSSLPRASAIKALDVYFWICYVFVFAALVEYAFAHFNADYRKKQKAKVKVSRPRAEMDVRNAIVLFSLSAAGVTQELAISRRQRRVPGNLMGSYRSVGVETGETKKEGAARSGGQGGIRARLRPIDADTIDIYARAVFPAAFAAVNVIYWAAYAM

Regarding `C=C[C@]12CCC(=O)C=C1CCC1C2CC[C@@]2(C)C1CC[C@@H]2C(C)=O` (stereo partly drawn) [ORG OD 02-0], in experiment [1], the “acute modulation of function of GABAARs composed of α4β3 subunits” value is on record as “did not acutely modulate”. In addition, the “amplitude and density of GABAergic tonic current, varying doses” value in experiment [2] is reported as “dosage-dependent effect”. For the same compound, the “GABA-evoked currents recorded from GT1-7 cells” value in experiment [3] is “sustained increases”. Moreover, the “S408/9 phosphorylation in hippocampal slices (FIG. 18)” value in experiment [4] is on record as “regulated”.
For `CC(=O)[C@H]1CC[C@H]2[C@@H]3CCC4=CC(=O)CC[C@]4(C)[C@H]3CC[C@]12C` [P4, Progesterone], the “amplitude and density of GABAergic tonic current, varying doses” value in experiment [2] is on record as “dosage-dependent effect”. Moreover, the “S408/9 phosphorylation in GT1-7 cells” value in experiment [5] was “increase”. Further, the “S408/9 phosphorylation in hippocampal slices (FIG. 18)” value in experiment [4] is listed as “regulated”.
As to `C[C@]12CC[C@@H](O)C[C@H]1CC[C@@H]1[C@@H]2CC[C@]2(C)[C@@H](C(=O)CO)CC[C@@H]12` [THDOC, Tetrahydrodeoxycorticosterone], in experiment [6], the “sustained effect on GABAergic tonic current” value was “long lasting increase”.
As for `CN1C(=O)CN=C(c2ccccc2)c2cc(Cl)ccc21` [diazepam], the “effect on GABA evoked currents in α4β3δ receptors” value in experiment [7] was “did not alter”.
